The nature of the data set: Dynamic Vapour Sorption (DVS) assessment. Type of data set: physicochemical. The protocol: A Dynamic Vapour Sorption (DVS) profile of Form 1 was obtained using an SMS DVS-1 with water as a reagent at 25° C. 20-30 mg of sample were placed in a glass bulb and equilibrated at 30% RH. The % RH was increased to 90% in 10% steps.

Where a name gives a salt, the structure may show the parent alone.

In the case of `COc1cc(NC(=O)CCN2CCC(OC(=O)Nc3ccccc3-c3ccccc3)CC2)c(Cl)cc1CNC[C@H](O)c1ccc(O)c2[nH]c(=O)ccc12` [Form 1, Biphenyl-2-ylcarbamic Acid 1-[2-(2-Chloro-4-{[(R)-2-hydroxy-2-(8-hydroxy-2-oxo-1,2-dihydroquinolin-5-yl)ethylamino]methyl}-5-methoxyphenylcarbamoyl)-ethyl]piperidin-4-yl Ester Succinic Acid Salt (Form 1)], the deliquescence entry (exposed to atmospheric moisture / DVS profile) is “not to be deliquescent”. Under “humidity range of 30% relative humidity to 90% relative humidity, water, 25° C.”, the “weight gain (hygroscopicity)” value was “less than 2.0%”. Besides, the sorption/desorption profile entry (two sorption/desorption cycles, 0-90% RH in 10% steps, 25° C.) is recorded as “reversible”.
